From patent US8404848B2, “Derivatives of imidazo[1,2-a]pyridine-2-carboxamides, preparation method thereof and use of same in therapeutics” (Sanofi, priority 2006, dated 2013)

Assays:
mouse Nurr1 receptor = target: T1, mouse Nurr1 receptor (Mus musculus, UniProt Q06219); test: In vitro activity on N2A cells (NBRE-luciferase reporter); type: cell-based; details: N2A cell line endogenously expressing mouse Nurr1, stably transfected with 8NBRE-luciferase; 24 hours incubation
T1 construct: On a cell line (N2A) endogenously expressing the mouse Nurr1 receptor; host or cells: Neuro-2A (N2A) mouse neuroblastoma cells stably transfected with 8NBRE-luciferase
T1 sequence (Q06219 whole entry): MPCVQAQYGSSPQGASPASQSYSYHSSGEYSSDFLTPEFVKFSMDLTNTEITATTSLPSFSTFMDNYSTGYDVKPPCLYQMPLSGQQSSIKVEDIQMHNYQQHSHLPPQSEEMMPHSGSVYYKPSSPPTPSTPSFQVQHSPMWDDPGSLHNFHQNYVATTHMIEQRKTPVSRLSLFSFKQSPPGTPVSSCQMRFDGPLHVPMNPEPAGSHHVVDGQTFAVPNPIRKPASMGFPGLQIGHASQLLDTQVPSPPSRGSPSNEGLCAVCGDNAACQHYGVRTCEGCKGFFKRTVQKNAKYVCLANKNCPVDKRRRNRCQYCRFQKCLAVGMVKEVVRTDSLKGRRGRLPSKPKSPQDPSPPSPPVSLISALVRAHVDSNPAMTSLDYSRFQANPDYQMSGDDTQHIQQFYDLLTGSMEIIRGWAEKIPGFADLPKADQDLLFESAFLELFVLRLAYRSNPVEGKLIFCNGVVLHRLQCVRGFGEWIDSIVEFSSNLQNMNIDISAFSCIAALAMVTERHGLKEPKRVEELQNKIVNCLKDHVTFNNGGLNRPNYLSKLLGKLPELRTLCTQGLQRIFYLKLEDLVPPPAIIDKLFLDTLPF
Method: Evaluation of the In Vitro Activity on N2A Cells
On a cell line (N2A) endogenously expressing the mouse Nurr1 receptor and stably transfected with the NOT binding response element (NBRE) coupled to the luciferase reporter gene. The EC50 values are between 0.01 and 1000 nM. The assays were carried out according to the procedure described below.
The Neuro-2A cell line comes from a standard commercial source (ATCC). The Neuro-2A clone was obtained, from a spontaneous tumor originating from an A albino mouse strain, by R. J Klebe et al. This Neuro-2A line is subsequently stably transfected with 8NBRE-luciferase. The N2A-8NBRE cells are cultured until confluence in 75 cm^2 culture flasks containing DMEM supplemented with 10% of fetal calf serum, 4.5 g/l of glucose and 0.4 mg/ml of geneticin. After a week of culture, the cells are recovered with 0.25% trypsin for 30 seconds and then resuspended in DMEM without phenol red, containing 4.5 g/l of glucose and 10% of Hyclone delipidized serum, and deposited into transparent-bottom 96-well white plates. The cells are deposited at a rate of 60 000 per well in 75 μl for 24 hours before the addition of the products. The products are applied in 25 μl and incubated for a further 24 hours. On the day of the measurement, an equivalent volume (100 μl) of Steadylite is added to each well and then left for a period of 30 minutes in order to obtain complete cell lysis and maximum signal production. The plates are subsequently measured in a luminescence counter for microplates after having been sealed with an adhesive film. The products are prepared in the form of a stock solution at 10^−2M and then diluted in 100% of DMSO. Each product concentration is prediluted in culture medium before incubation with the cells, thus containing 0.625% final concentration of DMSO.

human NOT receptor = test: Binding to the human NOT receptor by SPR (surface plasmon resonance); details: Biacore S51, immobilized GST-NOT whole protein and NOT ligand-binding domain, 3.75 to 0.1 μM, 4° C.
Method: Evaluation of the Binding to the Human NOT Receptor
The direct binding between compounds of the invention and the human NOT receptor was evaluated using SPR (surface plasmon resonance) technology. In this assay, the protein is immobilized covalently at the matrix and the molecule to be studied is injected into the chamber comprising the sensor chip. The signal is directly proportional to the amount of product bound to the protein. The binding assays were carried out in a Biacore S51 instrument (Biacore Inc., Piscataway, N.J.). The GST-NOT (NOT-FL) whole protein was provided by Invitrogen (PV3265). The NOT ligand-binding domain (His-Thr-NOT 329-598) was expressed and purified as described in Nature, 423, 555-560. The two proteins, diluted to a concentration of 20 μg/ml in an acetate buffer, pH 5.0, containing 5 mM of DTT, were immobilized on a carboxymethyl 5′ dextran surface (CM5 sensor chip, Biacore Inc.) by amine coupling according to the protocol recommended by Biacore, elution being carried out with an HBS-N buffer (10 mM HEPES, 0.15 M NaCl, […], pH 7.4). Approximately 10 000-15 000 resonance units (RU) of the proteins are captured on the surface of the CM5 sensor chip. […] The dissociation was recorded for 5 minutes without any other procedure for regenerating the surface. […]

Structure (SMILES) | EC50 (mouse Nurr1 receptor) | affinity (direct binding, classified by maximum binding level and kinetic parameters) (human NOT receptor)
CN(C)c1ccc2nc(C(=O)Nc3cc(F)ccc3F)cn2c1 [Compound 58, N-(2,5-Difluorophenyl)-6-(dimethylamino)imidazo[1,2-a]pyridine-2-carboxamide] | 1.3 nM | 
Cc1ccc2nc(C(=O)Nc3ccccc3)cn2c1 [Compound 19, 6-Methyl-N-phenylimidazo[1,2-a]pyridine-2-carboxamide] | 0.6 nM | low
C=C(C)c1ccc2nc(C(=O)Nc3ccccc3)cn2c1 [Compound 32, 6-Isopropenyl-N-phenylimidazo[1,2-a]pyridine-2-carboxamide] | 0.06 nM | 
CC(C)(O)c1ccc2nc(C(=O)Nc3ccccc3)cn2c1 [Compound 4, 6-(1-Hydroxy-1-methylethyl)-N-phenylimidazo[1,2-a]pyridine-2-carboxamide] | 0.66 nM | 
O=C(Nc1ccccc1F)c1cn2cc(-c3cccc(CO)c3)ccc2n1 [Compound 67, N-(2-Fluorophenyl)-6-[3-(hydroxymethyl)phenyl]imidazo[1,2-a]pyridine-2-carboxamide] | 0.7 nM | 

Continued by falling EC50 (mouse Nurr1 receptor), values first:

EC50 (mouse Nurr1 receptor) | affinity (direct binding, classified by maximum binding level and kinetic parameters) (human NOT receptor) | Structure (SMILES)
1.3 nM |  | COc1ccc2nc(C(=O)Nc3ccccc3)cn2c1 [Compound 29, 6-Methoxy-N-phenylimidazo[1,2-a]pyridine-2-carboxamide]
0.9 nM | moderate | O=C(Nc1ccccc1)c1cn2cc(-c3ccccc3)ccc2n1 [Compound 7, N,6-Diphenylimidazo[1,2-a]pyridine-2-carboxamide]
0.3 nM |  | Cc1ccc2nc(C(=O)Nc3ccccc3)cn2c1C [Compound 43, 5,6-Dimethyl-N-phenylimidazo[1,2-a]pyridine-2-carboxamide]
0.16 nM |  | O=C(Nc1ccccc1)c1cn2cc(N3CCC3)ccc2n1 [Compound 70, 6-(Azetidin-1-yl)-N-phenylimidazo[1,2-a]pyridine-2-carboxamide]
